Reference: US8541364B2, “Use of a octreotide as a therapeutic agent” (Mondobiotech Laboratories AG, priority 2007, dated 2013)

Experiments:
[1] = system: CEM-SS cells; test: HIV-1 assay cytotoxicity, MTS cell viability; settings: peptide 10 micrograms per ml
[2] = system: HIV-1IIIB; test: HIV-1 antiviral assay, CPE reduction (MTS); settings: peptide 10 micrograms per ml; 6 days post-infection
[3] = system: HUVEC; test: Endothelial cell migration assay; format: cell-based, human; settings: 10 micrograms per ml, 22 hours
Experimental: Endothelial cell migration is a prerequisite for the process of neo-vascularization or angiogenesis which is crucial for on-site recruitment of blood vessel formation. Primary Human endothelial cells (HUVEC) were seeded in insert chambers with 3 micrometer pore size of multi-transwell plate for 6 hours at 37° C. in Endothelial Cell Basal Medium (EBM) supplemented with 0.1% bovine serum albumin. Thereafter, designated concentration of test peptide—10 micrograms per ml—was added in duplicate wells. The endothelia were allowed to migrate for 22 hours at 37° C., then, migrated cells were fixed and stained with Hoechst 33342 dye. Images of 3 fields per insert were taken and the number of migrated cells per field were quantified using the ImageProPlus software. Data were analyzed for the average number of the migrated cells and standard deviation of six data points for each treatment condition. Active test peptide against HUVEC migration was determined based on 50% inhibition of migrated cells as compared with the control. Statistic p values were computed using the Student's t-test.

[4] = system: A549 cells; test: Propidium iodide cell cycle assay; format: cell-based, human; settings: 10 micrograms per ml, 24 hours
Experimental: Human A549 cells (carcinomic human alveolar basal epithelial cells) were utilized in the experiments employing the Propidium iodide cell cycle assay. The eukaryotic cell cycle is a series of events that take place in a cell leading to its replication.
Propidium iodide is an intercalating agent and a fluorescent molecule that can be used to stain DNA. Cells were incubated for 24 hours with test peptide—10 micrograms per ml—or left untreated. After that cells were trypsinized, suspended in medium+10% FCS, centrifuged (1000 rpm, 5 min), and the cell pellet resuspended in PBS (1 ml). The cells were pipetted into 2.5 ml absolute EtOH (final concentration approx. 70%) and incubated on ice for 15 min. Thereafter, cells were pelleted at 1500 rpm for 5 min and resuspended in Propidium iodide solution in PBS. After incubation for 40 min at 37° C., cells were analyzed in the FACS.

[5] = system: A549 cells; test: Apoptosis prevention assay (Annexin-5, C2 ceramide); format: cell-based, human; settings: A549 cells pretreated 30 min; 10 micrograms per ml
Excerpt: Human A549 cells (carcinomic human alveolar basal epithelial cells) were utilized in the experiments employing the Annexin-5 apoptosis assay. Annexin-5 is a member of a highly conserved protein family that binds acidic phospholipids in a calcium-dependent manner. […] Phosphatidylserine is translocated from the inner side of the plasma membrane to the outer layer when cells undergo death by apoptosis or cell necrosis and serves as a signal by which cell destined for death are recognized by phagocytes. A549 cells were pretreated for 30 min with test peptide—10 micrograms per ml—followed by the exposure to C2 ceramide. Ceramide mediates cell apoptosis through the activation of the mitogen activating protein kinase (MAPK) and the stress activated kinase (JNK/SAPK). C2 ceramide is a synthetic, membrane soluble analog of ceramide.

[6] = system: HCMV strain AD169; test: HCMV plaque reduction assay; format: cell-based; settings: HCMV in MRC-5 cells; peptide 10 micrograms per ml; 7-10 days
Excerpt: (§1) Cells were split twic a week 1:2.
Ganciclovir was used as positive control.

[7] = system: HUVEC; test: Endothelial tube formation assay; format: cell-based, human; settings: 10 micrograms per ml, 20 hours
Experimental: The endothelial tube formation assay is based on the ability of endothelial cells to form three-dimensional capillary-like tubular structures when cultured on a gel of basement membrane extract. The endothelial tube formation assay represents a powerful model for studying inhibition and induction of angiogenesis. Pre-labeled HUVEC with Calcein AM were seeded in a 96-well culture plate coated with extracellular metrix (Chemicon international Cat. ECM625) and treated with test peptide—10 micrograms per ml—in full growth medium. Positive control was vehicle only. The endothelial cells were allowed to form tubes foe 20 hours and were then examined under an inverted fluorescent microscope. Duplicate wells for each treatment were photographed and quantitatevily analyzed for an average tubule length using image analysis software ImageProPlus. Raw data were expressed as average tubule lenghs in pixels±standard deviation. Statistic p values were computed using the Student's t-test.

[8] = system: Ovalbumin-restimulated spleen cells; test: Th1/Th2 cytokine profiling assay; format: cell-based, Balb/c mice; settings: 10 micrograms per ml; 72 hours
Excerpt: The Balb/c mice (originated in 1923, it is a popular strain and is used in many different research disciplines. Also classified as an inbred from the production of 20 or more successive brother-sister matings, the Balb/c mouse is albino and small in size) were immunized on Days 1, 15, and 29 with Ovalbumin (Ovalbumin is the main protein found in egg white, commonly used to stimulate an immunological reaction in test animals) in PBS (5 micrograms/injection). On day 50, spleens of the mice were harvested (3 weeks after last boost with Ovalbumin). Cells were cultured (2×10^5/well in triplicate) and incubated with culture medium or test peptide—10 micrograms per ml—for 30 min. Thereafter, additional Ovalbumin was added to the cells at 10 micrograms/ml for in vitro restimulation of the cells. 72 hours later, cell supernatants were harvested and assayed using the Becton Dickinson Mouse Th1/Th2 Cytokine CBA Kit. This kit can be used to measure Interleukin-2 (IL-2), Interleukin-4 (IL-4), Interleukin-5 (IL-5), Interferon-γ (IFN-γ), and Tumor Necrosis Factor-α (TNF-α) protein levels in a single sample. The kit performance has been optimized for analysis of physiologically relevant concentrations (pg/ml levels) of specific cytokine proteins in tissue culture supernatants and serum samples.

[9] = system: MRSA; test: Methicillin resistant Staphylococcus aureus (MRSA) assay; format: cell-based; settings: MRSA growth; peptide 10 micrograms per ml
Experimental: (§2) The antibacterial assay was conducted using clear, U-bottom 96-well microtiter plates. Cation-adjusted Mueller-Hinton Broth (MHB) was used for testing MRSA. The peptide of the invention (0.1 ml of each—10 micrograms per ml—) was dispensed into wells in duplicate. Then the wells were inoculated with 5×10^5 CFU/mL MRSA in 0.1 ml volume. For control purposes, each plate included 4 wells containing media without bacterial inoculum and 4 wells containing medium with inoculum but without peptide. The plates were incubated for 12 h at 37° C., and read visually 18-24 hours post-incubation. Growth control of MRSA was examined first to determine adequacy of media preparations and growth conditions. Acceptable growth is defined as 2 mm wide button of cells at the bottom of each sample well, or obvious turbidity in the culture supernatant. Test wells were examined and scored as positive/negative for activity. A positive score for activity is based on complete inhibition of macroscopic growth of the test MRSA.

[10] = system: MRC-5 cells; test: HCMV assay cytotoxicity testing, CellTiter 96; format: cell-based, human; settings: 6 days incubation
Experimental: as §1
For cytotxicity testing, MRC-5 cells were seeded at 2,500 cells/well in 96 well plates using growth medium. […] The following day, peptide was added and tested in duplicates. After a 6 days incubation period, cell viability was measured using CellTiter 96 Solution (Promega). Plates were incubated for additional 4 hours at 37° C.

[11] = system: Pseudomonas aeruginosa; test: Pseudomonas aeruginosa assay; format: cell-based; settings: Pseudomonas aeruginosa growth; peptide 10 micrograms per ml
Experimental: as §2, with “testing Pseudomonas aeruginosa.” for “testing MRSA.”, “CFU/mL Pseudomonas aeruginosa” for “CFU/mL MRSA”, “of Pseudomonas aeruginosa” for “of MRSA”, “as ≧2” for “as 2”, “test Pseudomonas aeruginosa.” for “test MRSA.”

[12] = system: Streptococcus pneumoniae; test: Streptococcus pneumoniae assay; format: cell-based; settings: Streptococcus pneumoniae growth; peptide 10 micrograms per ml
Experimental: as §2, with “testing Streptococcus pneumoniae.” for “testing MRSA.”, “CFU/mL Streptococcus pneumoniae” for “CFU/mL MRSA”, “of Streptococcus pneumoniae” for “of MRSA”, “as ≧2” for “as 2”, “test Streptococcus pneumoniae.” for “test MRSA.”

[13] = system: HepG2-2.2.15 cells; test: HBV assay cytotoxicity, dye uptake cell viability; format: cell-based; settings: peptide 10 micrograms per ml
[14] = system: A549 cells; test: Apoptosis induction assay (Annexin-5); format: cell-based, human; settings: 10 micrograms per ml, 24 hours
Excerpt: Human A549 cells (carcinomic human alveolar basal epithelial cells) were utilized in the experiments employing the Annexin-5 apoptosis assay. Annexin-5 is a member of a highly conserved protein family that binds acidic phospholipids in a calcium-dependent manner. […] Phosphatidylserine is translocated from the inner side of the plasma membrane to the outer layer when cells undergo death by apoptosis or cell necrosis and serves as a signal by which cell destined for death are recognized by phagocytes. Test peptide—10 micrograms per ml—were exposed for 24 hours to the A549 cells before they were analyzed for signs of apoptosis.

[15] = system: PHA-stimulated PBMC (T cell proliferation); test: T cell proliferation assay; format: cell-based, human; settings: 3H-thymidine incorporation; 10 micrograms per ml
Experimental: Human Peripheral Blood Mononuclear Cells (PBMC) were obtained from normal human donors. The T cell proliferation was induced by stimulation of the cells with the T cell mitogen phytohemagglutinin (PHA), either in the absence (positive proliferation control), or in the presence of test peptide—10 micrograms per ml—to examine their effects on the T cell proliferating response. 10^5/well PBMC were plated in 96-well microtiter plates and assayed in duplicate with the peptide. Cell cultures were incubated at 37° C. for 3 days in a 5% CO2 incubator and were thereafter pulsed with 1 microCi/well ^3H-thymidine for additional 12 hours of culture. At the end of incubation time, the plates were harvested and the cells counted by liquid scintillation for the incorporation of ^3H-thymidine as a measure of T cell proliferation.

SMILES | % Cell viability [1] [%] | % CPE reduction in HIV-1 infected CEM-SS cells [2] [%] | % inhibition of migration [3] [%] | Cell cycle analysis G2/M [4] | % prevention of ceramide induced apoptosis [5] [%] | % plaque reduction [6] [%] | % inhibition of tube formation [7] [%] | IFNγ spleen cells; TH1 response (% of control) [8] | % inhibition [9] [%] | % Cell viability [10] [%] | % inhibition [11] [%] | % inhibition [12] [%] | % Cell viability [13] [%] | % of induction [14] [%] | % of PHA induced control [15] [%]
Cc1cn([C@H]2C[C@H](N=[N+]=[N-])[C@@H](CO)O2)c(=O)[nH]c1=O [AZT, reference compound] | 97 | 99 |  |  |  |  |  |  |  |  |  |  |  |  | 
CC(C)(C)NC(=O)[C@@H]1CN(Cc2cccnc2)CCN1C[C@@H](O)C[C@@H](Cc1ccccc1)C(=O)N[C@H]1c2ccccc2C[C@H]1O [Indinavir] |  | 100 |  |  |  |  |  |  |  |  |  |  |  |  | 
C[C@@H](O)[C@@H]1NC(=O)[C@H](CCCCN)NC(=O)[C@@H](Cc2c[nH]c3ccccc23)NC(=O)[C@H](Cc2ccccc2)NC(=O)[C@@H](NC(=O)[C@H](N)Cc2ccccc2)CSSC[C@@H](C(=O)N[C@H](CO)[C@@H](C)O)NC1=O [Octreotide, D-Phe-Cys-Phe-D-Trp-Lys-Thr-Cys-L-threoninol] | 100 | 0.0 | −24 | 9.2 | 0.0 | 0.0 | 8 | 56.0 % of control | 0.0 | 100 | 0.0 | 100.0 | 97.8 | 2.6 | 100.0
